Laboratory results reported in article PMC8889123 (International journal for parasitology, 2019).

Target: T1, Ser/Thr protein phosphatase 5 (PbPP5) (Plasmodium berghei, UniProt A0A509AMH5)
T1 sequence (A0A509AMH5 407-711): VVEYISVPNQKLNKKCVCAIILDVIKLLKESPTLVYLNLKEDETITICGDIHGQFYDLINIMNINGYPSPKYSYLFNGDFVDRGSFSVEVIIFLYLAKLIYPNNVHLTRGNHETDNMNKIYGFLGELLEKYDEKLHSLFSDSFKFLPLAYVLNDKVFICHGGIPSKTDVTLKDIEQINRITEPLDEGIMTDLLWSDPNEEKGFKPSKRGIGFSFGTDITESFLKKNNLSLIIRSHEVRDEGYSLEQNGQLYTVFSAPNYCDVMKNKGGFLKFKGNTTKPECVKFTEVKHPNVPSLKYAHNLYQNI
Type: biochemical

With `C[C@]1(C(=O)O)[C@@H]2CC[C@@H](O2)[C@@]1(C)C(=O)O` [cantharidic acid] as the molecule, how does the IC50 read?
The IC50 was 122 nM.

For `C[C@@]12C(=O)OC(=O)[C@]1(C)[C@H]1CC[C@@H]2O1` [cantharidin], which IC50 is on record?
The IC50 was 74.3 nM.

Which IC50 does the source give for `O=C(O)[C@@H]1[C@H](C(=O)O)[C@H]2CC[C@@H]1O2` [endothall] here?
Its IC50 is 365 nM.

With `C=C1[C@@H](O)[C@@H]2O[C@]3(CC[C@H](/C=C/[C@@H](C)[C@@H]4CC(C)=C[C@@]5(O[C@H](C[C@@](C)(O)C(=O)O)CC[C@H]5O)O4)O3)CC[C@H]2O[C@@H]1[C@@H](O)C[C@H](C)[C@H]1O[C@@]2(CCCCO2)CC[C@H]1C` [okadaic acid] as the molecule, how does the IC50 read?
Its IC50 is 1.3 nM.
